How the values were obtained:
[1] = target: T1, Protein Kinase A (Bos taurus, UniProt P00517); assay: Protein Kinase A selectivity assay; type: biochemical, bovine; settings: Table 4 kinase selectivity; read-out: IC50, Assay 5 Protein Kinase A
T1 construct: purified from bovine heart; purchased Upstate Biotech 14-114; host or cells: bovine heart
Protocol: (§1) Assays to test compound inhibition of other kinases were preformed using methods that measure the amount of phosphorylation of a biotinylated peptide substrate. Biotinylated peptide substrates were selected from the literature as appropriate for the enzyme being evaluated. […] Assay conditions vary slightly for each protein kinase, for example, insulin receptor kinase requires 10 mM MnCl2 for activity and Calmodulin-dependent protein kinase requires calmodulin and 2 mM CaCl2. The reaction mixture was dispensed into the wells of a streptavidin coated Flashplate and 1 μl drug stock in 100% DMSO was added to a 100 μl reaction volume resulting in a final concentration of 1% DMSO in the reaction. Enzyme was diluted in 50 mM Tris-HCl pH=8.0, 0.1% BSA and added to each well. The reaction was incubated for one hour at 30° C. in the presence of compound. After one hour the reaction mix was aspirated from the plate and the plate was washed with PBS containing 100 mM EDTA. The plate was read on a scintillation counter to determine ^33P-γ-ATP incorporated into the immobilized peptide. Test compounds were assayed in duplicate at 8 concentrations [100 tM, 10 μM, 1 μM, 100 nM, 10 nM, 1 nM, 100 μM, 10 μM]. A maximum and minimum signal for the assay was determined on each plate. The IC50 was calculated from the dose response curve of the percent inhibition of the maximum signal in the assay according to the formula [max signal−background/test compound signal−background (100)=% inhibition] by graphing the percent inhibition against the log concentration of test compound. Known inhibitor compounds appropriate for the kinase being assayed were also included on each plate.
(§2) VEGF-R (vascular endothelial growth factor receptor-2) is a fusion protein containing a polyhistidine tag at the N-terminus followed by amino acids 786-1343 of the rat VEGF-R2 kinase domain (GenBank Accession #U93306). CDK1 (cyclin dependent kinase 1) is isolated from insect cells expressing both the human CDK1 catalytic subunit and its positive regulatory subunit cyclin B (New England Biolabs, Beverly, Mass., Cat. #6020). CDK4 (cyclin dependent kinase 4) contains amino acids 769 to 921 of the mouse […] protein found in the GST-retinoblastoma protein construct (Santa Cruz Biotechnology, Santa Cruz, Calif.; Cat. #SC-4112). Insulin Receptor Kinase consists of residues 941-1313 of the cytoplasmic domain of the beta-subunit of the human insulin receptor (BIOMOL, Plymouth Meeting, Pa., Cat. #SE-195). Protein Kinase A is the catalytic subunit of cAMP dependent protein kinase-A purified from bovine heart (Upstate Biotech, Lake Placid, N.Y., Cat#14-114). PKC (protein kinase-C) is the gamma or beta isoform of the human protein produced in insect cells (BIOMOL, Plymouth Meeting, Pa., Cat. #SE-143). Casein Kinase 1 is a truncation at amino acid 318 of the C-terminal portion of the rat CK1 delta isoform produced in E.coli (New England Biolabs, Beverly, Mass., Cat. #6030). Casein Kinase 2 includes the alpha and beta subunits of the human CK2 protein produced in E.coli (New England Biolabs, Beverly, Mass., Cat. #6010). Calmodulin Kinase (calmodulin-dependent protein kinase 2) is a truncated version of the alpha subunit of the rat protein produced in insect cells (New England Biolabs, Beverly, Mass., Cat. #6060). Glycogen Synthase Kinase-3 is the beta isoform of the rabbit enzyme produced in E. coli (New England Biolabs, Beverly, Mass., Cat. #6040). MAP Kinase is the rat ERK-2 isoform containing a polyhistidine tag at the N-terminus produced in E. coli. and activated by phosphorylation with MEK1 prior to purification (BIOMOL, Plymouth Meeting, Pa., Cat. #SE-137). EGFR (epidermal growth factor receptor) is purified from human A431 cell membranes (Sigma, St. Louis, Mo., Cat.# E3641). PDGF-R (platelet derived growth factor receptor) is a fusion protein containing a polyhistidine tag at the N-terminus followed by nucleotides 1874-3507 of the human PDGF-R beta subunit kinase domain (Accession #M21616). […]

[2] = target: T2, PKC-γ (Homo sapiens, UniProt P05129); assay: PKC-γ kinase selectivity assay; type: biochemical; settings: Table 4 kinase selectivity; read-out: IC50, Assay 6 PKC-γ
T2 construct: purchased BIOMOL SE-143; host or cells: insect cells
Protocol: as §1, §2

[3] = target: T3, PKC-β2 (Homo sapiens, UniProt P05771); assay: PKC-β2 kinase selectivity assay; type: biochemical; settings: Table 4 kinase selectivity; read-out: IC50, Assay 7 PKC-β2
T3 construct: purchased BIOMOL SE-143; host or cells: insect cells
Protocol: as §1, §2

[4] = target: T4, Casein Kinase 2 (Homo sapiens, UniProt P68400); assay: Casein Kinase 2 selectivity assay; type: biochemical; settings: Table 4 kinase selectivity; 10 = approximate value; read-out: IC50, Assay 9 Casein Kinase 2
T4 construct: purchased New England Biolabs 6010; host or cells: E. coli
Protocol: as §1, §2

[5] = target: T5, Calmodulin Kinase (calmodulin-dependent protein kinase 2) (Rattus norvegicus, UniProt P11275); assay: Calmodulin Kinase selectivity assay; type: biochemical; settings: Table 4 kinase selectivity; read-out: IC50, Assay 10 Calmodulin Kinase
T5 construct: a truncated version of the alpha subunit of the rat protein; purchased New England Biolabs 6060; host or cells: insect cells

[6] = target: T6, MAP Kinase ERK-2 (Rattus norvegicus, UniProt P63086); assay: MAP Kinase ERK-2 selectivity assay; type: biochemical; settings: Table 4 kinase selectivity; read-out: IC50, Assay 12 MAP Kinase ERK-2
T6 construct: polyhistidine (N); purchased BIOMOL SE-137; host or cells: E. coli
Protocol: as §1, §2

[7] = target: T7, Insulin Receptor Kinase (Homo sapiens, UniProt P06213); assay: Insulin Kinase selectivity assay; type: biochemical; settings: Table 4 kinase selectivity; read-out: IC50, Assay 13 Insulin Kinase
T7 construct: consists of residues 941-1313 of the cytoplasmic domain of the beta-subunit of the human insulin receptor; purchased BIOMOL SE-195
Protocol: as §1, §2

T7 sequence (P06213 980-1352): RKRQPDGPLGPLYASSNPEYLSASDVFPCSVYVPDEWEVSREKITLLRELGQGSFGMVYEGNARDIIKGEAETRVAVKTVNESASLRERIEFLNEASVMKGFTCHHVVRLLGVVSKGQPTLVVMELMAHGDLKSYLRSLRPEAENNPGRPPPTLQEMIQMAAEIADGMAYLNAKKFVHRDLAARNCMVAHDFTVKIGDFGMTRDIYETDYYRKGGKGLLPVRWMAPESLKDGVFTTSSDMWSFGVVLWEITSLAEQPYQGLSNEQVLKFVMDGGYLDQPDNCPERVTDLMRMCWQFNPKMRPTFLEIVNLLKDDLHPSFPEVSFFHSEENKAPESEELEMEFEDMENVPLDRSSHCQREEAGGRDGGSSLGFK
T5 sequence (P11275 1-325): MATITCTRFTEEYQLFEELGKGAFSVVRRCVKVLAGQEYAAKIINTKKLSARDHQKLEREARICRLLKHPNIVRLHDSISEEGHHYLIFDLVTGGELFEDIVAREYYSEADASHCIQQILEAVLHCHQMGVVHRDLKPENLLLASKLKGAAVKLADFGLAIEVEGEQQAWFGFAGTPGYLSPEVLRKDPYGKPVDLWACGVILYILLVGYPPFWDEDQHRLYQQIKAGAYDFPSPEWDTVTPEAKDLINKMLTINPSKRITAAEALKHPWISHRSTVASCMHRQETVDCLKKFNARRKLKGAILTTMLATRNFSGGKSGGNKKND
T3 sequence (P05771 1-673 isoform P05771-2): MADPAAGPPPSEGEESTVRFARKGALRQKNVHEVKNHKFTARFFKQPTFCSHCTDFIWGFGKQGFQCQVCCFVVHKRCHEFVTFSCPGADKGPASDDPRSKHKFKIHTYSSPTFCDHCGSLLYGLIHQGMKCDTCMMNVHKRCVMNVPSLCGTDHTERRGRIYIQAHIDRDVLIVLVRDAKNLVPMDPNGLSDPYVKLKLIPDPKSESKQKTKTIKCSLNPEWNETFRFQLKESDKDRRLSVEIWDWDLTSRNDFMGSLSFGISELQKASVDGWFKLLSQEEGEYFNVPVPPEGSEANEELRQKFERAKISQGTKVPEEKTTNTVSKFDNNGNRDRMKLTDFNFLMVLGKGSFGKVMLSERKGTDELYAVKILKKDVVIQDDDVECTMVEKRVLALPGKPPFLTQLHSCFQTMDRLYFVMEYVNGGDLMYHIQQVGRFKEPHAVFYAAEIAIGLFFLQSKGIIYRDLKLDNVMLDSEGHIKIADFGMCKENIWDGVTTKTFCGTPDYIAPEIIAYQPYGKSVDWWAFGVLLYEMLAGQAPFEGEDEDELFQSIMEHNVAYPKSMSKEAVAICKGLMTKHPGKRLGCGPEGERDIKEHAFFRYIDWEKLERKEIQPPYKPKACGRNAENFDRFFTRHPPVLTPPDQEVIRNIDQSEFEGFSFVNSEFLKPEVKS
T4 sequence (P68400 whole entry): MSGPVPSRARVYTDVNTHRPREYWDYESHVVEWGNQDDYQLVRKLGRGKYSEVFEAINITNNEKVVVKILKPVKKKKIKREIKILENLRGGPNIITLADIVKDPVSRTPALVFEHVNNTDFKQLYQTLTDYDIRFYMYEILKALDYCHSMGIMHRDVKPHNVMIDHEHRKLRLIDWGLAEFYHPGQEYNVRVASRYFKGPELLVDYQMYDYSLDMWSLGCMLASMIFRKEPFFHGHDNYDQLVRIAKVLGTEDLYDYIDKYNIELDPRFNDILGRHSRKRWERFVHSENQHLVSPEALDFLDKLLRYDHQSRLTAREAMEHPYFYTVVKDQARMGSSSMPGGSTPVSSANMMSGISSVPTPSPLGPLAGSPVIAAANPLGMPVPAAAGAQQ
T4 sequence (P67870 whole entry partner): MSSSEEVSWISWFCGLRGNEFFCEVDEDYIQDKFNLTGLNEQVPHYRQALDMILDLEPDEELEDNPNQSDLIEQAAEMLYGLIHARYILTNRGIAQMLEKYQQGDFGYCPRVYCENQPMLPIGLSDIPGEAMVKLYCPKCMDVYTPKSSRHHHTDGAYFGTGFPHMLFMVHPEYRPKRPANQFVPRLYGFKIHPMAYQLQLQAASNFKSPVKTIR
T6 sequence (P63086 whole entry): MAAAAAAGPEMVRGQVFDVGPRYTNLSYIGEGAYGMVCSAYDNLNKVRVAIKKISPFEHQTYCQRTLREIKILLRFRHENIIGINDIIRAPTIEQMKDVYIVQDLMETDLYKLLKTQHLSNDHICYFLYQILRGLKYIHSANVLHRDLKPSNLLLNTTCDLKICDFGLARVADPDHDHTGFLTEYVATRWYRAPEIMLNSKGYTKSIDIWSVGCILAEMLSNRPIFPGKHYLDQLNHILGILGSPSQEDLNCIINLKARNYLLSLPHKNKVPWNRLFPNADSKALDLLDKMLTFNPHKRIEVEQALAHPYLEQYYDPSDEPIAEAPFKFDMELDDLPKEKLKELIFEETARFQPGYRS

Row | IC50 [1] | IC50 [2] | IC50 [3] | IC50 [4] | IC50 [5] | IC50 [6] | IC50 [7] | Compound
1 | > 100 µM | > 100 µM | > 100 µM | > 100 µM | > 100 µM | > 100 µM | 1.69 µM | OCCCNc1cncc(-c2cncc(Nc3cccc(Cl)c3)n2)c1 [Cmd 4]
2 | > 100 µM | > 100 µM | > 100 µM | > 100 µM | > 100 µM | > 100 µM | > 100 µM | OCCCCNc1cncc(-c2cncc(Nc3cccc(Cl)c3)n2)c1 [Cmd 32]
3 | > 100 µM | 3.96 µM | > 100 µM | > 100 µM | > 100 µM | > 100 µM | > 100 µM | CN(C)CCNc1cncc(-c2cncc(Nc3cccc(Cl)c3)n2)c1 [Cmd 33, N′-[5-[6-[(3-chlorophenyl)amino]pyrazinyl]-3-pyridinyl]-N^2,N^2-dimethyl-1,2-ethanediamine]
4 | > 100 µM | – | – | > 100 µM | 4.89 µM | > 100 µM | > 100 µM | Clc1cccc(Nc2cncc(-c3cncc(NCCCc4ccncc4)c3)n2)c1 [Cmd 71]
5 | > 100 µM | – | – | > 100 µM | > 100 µM | > 100 µM | > 100 µM | Clc1cccc(Nc2cncc(-c3cncc(NCCCc4cccnc4)c3)n2)c1 [Cmd 72]
6 | > 100 µM | 1.36 µM | 1.75 µM | 6.35 µM | 7.55 µM | > 100 µM | > 100 µM | Clc1cccc(Nc2cncc(-c3cncc(NCCCN4CCCCC4)c3)n2)c1 [Cmd 73]
7 | > 100 µM | – | – | 8.1 µM | 27 µM | > 100 µM | > 100 µM | Clc1cccc(Nc2cncc(-c3cncc(NCCCn4cccn4)c3)n2)c1 [Cmd 75]
8 | > 100 µM | – | – | 7.2 µM | 15.8 µM | > 100 µM | > 100 µM | Clc1cccc(Nc2cncc(-c3cncc(NCCCn4cncn4)c3)n2)c1 [Cmd 76]

Row | Compound | IC50 [1] | IC50 [2] | IC50 [3] | IC50 [4] | IC50 [5] | IC50 [6] | IC50 [7]
9 | CN(C)CCCNc1cncc(-c2cncc(Nc3cccc(Cl)c3)n2)c1 [Cmd 35] | > 100 µM | 14.5 µM | > 100 µM | > 100 µM | > 100 µM | > 100 µM | > 100 µM
10 | O=C(NCCCO)c1cncc(-c2cncc(Nc3cccc(Cl)c3)n2)c1 [Cmd 39] | > 100 µM | > 100 µM | > 100 µM | ~10 µM | > 100 µM | > 100 µM | 1.8 µM
